Source: patent US9289584B2, “Remotely controlled drug delivery systems” (THE UNIVERSITY OF BRITISH COLUMBIA, priority 2010, dated 2016)
Values after ≈ are worked out from the molar mass of the structure shown. Like-named read-outs stand apart in the source and are kept apart here.

Experiments:
[1] = Saturation solubility of DTX in the solution-filled reservoir; format: physicochemical; settings: 40 mg/ml BSA solution in PBS inside the device reservoir, aqueous buffer, thermodynamic from solid; solid DTX dissolved by BSA solution in PBS inside the reservoir, 37° C.
Description: Step 8: The device was exposed to a 40 mg/ml bovine serum albumin (BSA, Sigma-Aldrich Canada Ltd., Ontario, Canada) solution in phosphate buffered saline (PBS) and incubated at 37° C. to increase the wet ability of the magnetic PDMS membrane and thus filling of the drug reservoir with water. The hydrophilic aperture walls results in surface-tension driven flow through the aperture and gradual filling of the reservoir with solution.

HUVECs = assay: HUVEC viability (MTS assay); format: cell-based; settings: 2 days incubation
Description: (§1) A prototype device was actuated at the desired number of actuations in 1% BSA solution. The released DTX was extracted in 1 ml DCM, as described previously. This mixture was dried down under nitrogen flow at 40° C. and was then reconstituted in either HUVEC and PC3 cell media to the original volume of 4 ml. Alternatively, fresh solutions of free DTX were prepared in various concentrations (2-250 nM) in acetonitrile, dried down under nitrogen flow at 40° C., and reconstituted in cell media.
PC3 and HUVEC cells were seeded in 96 well plates in their respective media at a concentration of 1500 cells per well. The cells were allowed to equilibrate for 2 days at which time they became approximately 50% confluent and were ready for drug incubation. […] Cell viability was determined using a CellTiter 96 AQueous Non-Radioactive Cell Proliferation Assay (MTS assay, Promega Corporation, Madison, Wis.) and quantified by reading the absorbance at 492 nm minus the absorbance at 610 nm using a spectrometric plate reader. […]
The biological activity of the DTX released from a device was investigated. […] The amount of DTX release during this period was estimated to be about 4.5 μg based on measured DTX diffusion rate. […]

PC3 cells = assay: PC3 cell viability (MTS assay); format: cell-based; settings: for cell viability equilibrated: PC3 cells, 2 days incubation
Description: as §1
PC3 and HUVEC cells were seeded in 96 well plates in their respective media at a concentration of 1500 cells per well. The cells were allowed to equilibrate for 2 days at which time they became approximately 50% confluent and were ready for drug incubation. Cells were incubated for 2 days at 37° C. with 200 μl of either freshly prepared solutions of DTX at various concentrations or with the drug solution released from the device under various number of device actuations. Cell viability was determined using a CellTiter 96 AQueous Non-Radioactive Cell Proliferation Assay (MTS assay, Promega Corporation, Madison, Wis.) and quantified by reading the absorbance at 492 nm minus the absorbance at 610 nm using a spectrometric plate reader. In both experiments, the values presented are for the averages of six replicas for each condition.
The biological activity of the DTX released from a device was investigated. This was achieved by incubating cells with the released drug in cell culture media and measuring the drug induced inhibition of proliferation in comparison to the inhibition caused by freshly made drug solutions. The device used for this study had been fabricated and left in BSA solution for two months (with an open aperture) prior to the experiment. The amount of DTX release during this period was estimated to be about 4.5 μg based on measured DTX diffusion rate. It was then actuated under a 255 mT magnetic field for different numbers of actuation cycles. The amounts of released drug were then experimentally interpolated from “number of actuations” to “drug concentrations”, using FIG. 4-a. […]

[2] = HPLC test of drug released after 8 months inside the device; format: physicochemical; settings: HPLC after 8 months encapsulated inside the device
Description: The released drug from the device was tested with HPLC after 8 months that was encapsulated inside the device.

[3] = cited from earlier work
[4] = drug released from the device (255 mT, device kept two months in BSA solution)

| SMILES | solubility [1] [µg/mL] | cell viability equilibrated (HUVECs; [4]) | cell viability equilibrated (HUVECs; fresh free drug) | cell viability equilibrated (PC3 cells; [4]) | cell viability equilibrated (PC3 cells; fresh free drug) | stability of DTX inside the PDMS MEMS device (PC3 cells; after two months, judged by antiproliferative effect) | drug remained intact [2] | solubility [3] [µg/mL] |
| --- | --- | --- | --- | --- | --- | --- | --- | --- |
| CC(=O)O[C@@]12CO[C@@H]1C[C@H](O)[C@@]1(C)C(=O)[C@H](O)C3=C(C)[C@@H](OC(=O)[C@H](O)[C@@H](NC(=O)OC(C)(C)C)c4ccccc4)C[C@@](O)([C@@H](OC(=O)c4ccccc4)[C@H]21)C3(C)C [DTX, docetaxel] | ~5 (≈ 0.00619 mM) | about 24% | about 24% | about 34% | about 34% | does not degrade | over 95% | – |
| CC(C)OC(=O)CCC/C=C\C[C@@H]1[C@@H](CC[C@@H](O)CCc2ccccc2)[C@H](O)C[C@@H]1O [latanoprost] | – | – | – | – | – | – | – | 50000 (≈ 116 mM) |
| CC(C)(C)NC[C@H](O)COc1nsnc1N1CCOCC1 [timolol] | – | – | – | – | – | – | – | 2500 (≈ 7.9 mM) |
